Converted amounts (≈) assume the structure as drawn.
What was measured:
[1] = physchem; format: physicochemical
Experimental: Saturated solubility of pimobendan was investigated at 20 to 25% (w/v) of HPβCD in 10 mM phosphate buffer pH 7.0. The study was carried out on three different batches of HPβCD and each solution tested in duplicate (see FIG. 3). The solutions were prepared using the following method: • a) Approximately 3 ml of the solution under test was placed in a 7 ml glass vial with a magnetic stirring bar. • b) An excess of pimobendan was added. The sample was placed in an ultrasonic bath and sonicated for 5 min. to ensure an excess of pimobendan was present and more added if required. • c) The samples were placed in a water bath at 25° C. and stirred for at least 16 hours. • d) The samples were filtered using 0.2 μm PVDF syringe filter. • e) The samples were assayed by HPLC.
An isotonic solution was required for the formulation. […] Sodium chloride was added to increase the osmolality to 303 mOsm/Kg. Saturated solubility of pimobendan 0.75 mg/ml at 24% (w/v) HPβCD were investigated and results were compared with those formulations that were not supplemented with sodium chloride.

[2] = cited from earlier work
[3] = Saturated solubility of pimobendan at 10 to 40% (w/v) HPβCD at pH 3, 5 and 7; format: physicochemical; conditions: HPβCD 10 to 40% (w/v), pH 3, 5, 7, 25° C.
Experimental: Kleptose® HP (Roquette, France) was used as HPβCD of pharmaceutical grade. […] The solutions were buffered with a sodium phosphate solution. The sample solutions were prepared using the following method: • a) Approximately 3 ml of the solution under test was placed in a 7 ml glass vial with a magnetic stirring bar. • b) The pH was adjusted with hydrochloric acid • c) An excess of pimobendan was added.

solubility ([1]; 25 °C, pH 7, aqueous with cosolvent or surfactant or cyclodextrin, thermodynamic from solid, saturated solubility (amount of soluble pimobendan)): ~1230 µg/mL (≈ 3.68 mM)
saturated solubility (amount of soluble pimobendan) ([1]; pH 7): about 0.71 mg/ml
SMILES: COc1ccc(-c2nc3ccc(C4=NNC(=O)CC4C)cc3[nH]2)cc1 (stereo not shown) [pimobendan, 4,5-dihydro-6-[2-(4-methoxyphenyl)-1H-benzimidazol-5-yl]-5-methyl-3(2H)-pyridazinone]
solubility at pH 7 [2]: about 0.1 mg per 100 ml
solubility at a certain HPβCD concentration, compared between pH values [3]: lower at pH 7 than at pH 3, but higher than at pH 5

— US10639305B2, “Liquid preparation comprising pimobendan” (Boehringer Ingelheim Vetmedica GmbH, priority 2006, dated 2020)
